Results published in patent US20160257697A1, “THIOPHENE-SUBSTITUTED TETRACYCLIC COMPOUNDS AND METHODS OFUSE THEREOF FOR THE TREATMENT OF VIRAL DISEASES” (priority 2013, published 2016).
Read-outs that look alike come from different tables or passages of the source.

What was measured:
Assay in all cases: microbe, parasite or virus in culture
Type in all cases: cell-based, Hepatitis C virus (HCV)
Conditions in all cases: Replicon Assay A
[1] = test system: HCV replicon 1AY93H
Method in brief: (§1)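 Three-day treatment of replicon cells (2000/well, 5% FBS, 0.5% DMSO), followed by TaqMan RT-PCR of replicon RNA with cyclophilin as internal control.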

[2] = test system: HCV replicon 1A
Method in brief: as §1

[3] = test system: HCV replicon 2B
Method in brief: as §1

[4] = read-out: 1A Y93H IC50, replicon 1AY93H
[5] = read-out: 1A Y93H IC50, HCV replicon 1A Y93H
[6] = read-out: 2B IC50, HCV replicon 2B
[7] = Hepatitis C virus, read-out: 1A Y93H IC50, HCV replicon 1A Y93H
[8] = Hepatitis C virus, HCV replicon 1A
[9] = Hepatitis C virus, read-out: 2B IC50, HCV replicon 2B

Row | SMILES | IC50 [1, 4] | IC50 ([2]; replicon 1A) | IC50 ([3]; read-out: 2B IC50, replicon 2B) | other results
1 | COC(=O)N[C@@H](Cc1ccccc1)C(=O)N1CCC[C@H]1c1ncc(-c2ccc3c(c2)OC(c2ccc(-c4ccc(NC(=O)CCCC[C@@H]5SC[C@@H]6NC(=O)N[C@@H]65)cc4)s2)n2c-3cc3cc(-c4cnc([C@@H]5CCCN5C(=O)[C@H](Cc5ccccc5)NC(=O)OC)[nH]4)ccc32)[nH]1 (single isomer, unassigned) [Compound 383] | 6.34 nM | 0.0367 nM | 8.74 nM | 
2 | COC(=O)N[C@H](C(=O)N1CCC[C@H]1c1ncc(-c2ccc3c(c2)OC(c2cc(C)c(C)s2)n2c-3cc3cc(-c4cnc([C@@H]5C[C@H]6C[C@H]6N5C(=O)[C@@H](NC(=O)OC)C(C)C)[nH]4)ccc32)[nH]1)C(C)C (single isomer, unassigned) [Compound 503] |  |  |  | IC50 [1, 5]: 1.76 nM; IC50 ([2]; HCV replicon 1A): 0.0676 nM; IC50 [3, 6]: 7.51 nM
3 | COC(=O)NC(C(=O)N1CCC[C@H]1c1ncc(-c2ccc3c(c2)cc2n3C(c3ccc(C4CC4)s3)Oc3cc(-c4cnc([C@@H]5CCCN5C(=O)[C@@H](NC(=O)OC)C(C)C)[nH]4)cc(F)c3-2)[nH]1)C1CCOC(C)(C)C1 (single isomer, unassigned) [Compound 223] | 0.24 nM | 0.0025 nM | 0.27 nM | 
4 | COC(=O)N[C@H](C(=O)N1CCC[C@H]1c1ncc(-c2cc(F)c3c(c2)OC(c2ccc(C(C)C)s2)n2c-3cc3cc(-c4cnc([C@@H]5CCCN5C(=O)[C@@H](NC(=O)OC)C5CCOCC5)[nH]4)ccc32)[nH]1)C(C)C (single isomer, unassigned) [Compound 344] | 0.128 nM |  | 0.242 nM | IC50 ([2]; Hepatitis C virus, replicon 1A): 0.0015 nM
5 | CCOC(C)[C@H](NC(=O)OC)C(=O)N1CCC[C@H]1c1ncc(-c2cc(F)c3c(c2)OC(c2cc(C)c(C)s2)n2c-3cc3cc(-c4cnc([C@@H]5CCCN5C(=O)[C@@H](NC(=O)OC)C(C)C)[nH]4)ccc32)[nH]1 (single isomer, unassigned) [Compound 80] | 4.87 nM | 0.0027 nM | 3.16 nM | 
6 | COC(=O)N[C@H](C(=O)N1CCC[C@H]1c1ncc(-c2cc(F)c3c(c2)OC(c2sc(C4CC4)cc2C)n2c-3cc3cc(-c4cnc([C@@H]5CCCN5C(=O)[C@@H](NC(=O)OC)C(C)C)[nH]4)ccc32)[nH]1)C(C)C (single isomer, unassigned) [Compound 329] | 0.937 nM | 0.0012 nM | 0.605 nM | 
7 | COC(=O)N[C@H](C(=O)N1CCC[C@H]1c1ncc(-c2cc(F)c3c(c2)OC(c2ccc(CC4CC4)s2)n2c-3cc3cc(-c4cnc([C@@H]5C[C@H]6C[C@H]6N5C(=O)[C@@H](NC(=O)OC)C(C)C)[nH]4)ccc32)[nH]1)C(C)C (single isomer, unassigned) [Compound 390] | 0.314 nM | 0.003 nM | 0.754 nM | 
8 | COC(=O)NC(C(=O)N1CCCC1c1ncc(-c2cc(F)c3c(c2)OC(c2ccc(CC(C)(C)OC)s2)n2c-3cc3cc(-c4cnc(C5CCCN5C(=O)C(NC(=O)OC)C5CCOC(C)(C)C5)[nH]4)ccc32)[nH]1)C(C)C (single isomer, unassigned) [Compound 850] |  |  |  | IC50 ([1]; HCV replicon 1A Y93H, read-out: 1A Y93H IC50): 0.855 nM; IC50 ([2]; HCV replicon 1A): 0.0028 nM; IC50 ([3]; HCV replicon 2B, read-out: 2B IC50): 0.375 nM
9 | COC(=O)N[C@H](C(=O)N1C[C@H](F)C[C@H]1c1ncc(-c2ccc3c(c2)cc2n3C(c3cc4ccccc4s3)Oc3cc(-c4cnc([C@@H]5CCCN5C(=O)[C@@H](NC(=O)OC)C5CCOCC5)[nH]4)ccc3-2)[nH]1)C(C)C (single isomer, unassigned) [Compound 624] |  |  |  | IC50 [1, 5]: 0.494 nM; IC50 ([2]; HCV replicon 1A): 0.0021 nM; IC50 [3, 6]: 0.418 nM
10 | COC(=O)N[C@H](C(=O)N1CCC[C@H]1c1cnc(-c2ccc3c(c2)cc2n3C(c3cc4ccccc4s3)Oc3cc(-c4cnc([C@@H]5CCCN5C(=O)[C@@H](NC(=O)OC)C5CCOCC5)[nH]4)ccc3-2)[nH]1)C1CCOCC1 (single isomer, unassigned) [Compound 809] |  |  |  | IC50 [1, 5]: 0.82 nM; IC50 ([2]; HCV replicon 1A): 0.016 nM; IC50 [3, 6]: 4.2 nM
11 | COC(=O)NC(C(=O)N1CCC[C@H]1c1ncc(-c2ccc3c(c2)cc2n3C(c3ccc(C(C)C)s3)Oc3cc(-c4cnc([C@@H]5CCCN5C(=O)[C@@H](NC(=O)OC)C(C)C)[nH]4)cc(F)c3-2)[nH]1)C1CCOC(C)(C)C1 (single isomer, unassigned) [Compound 236] | 0.18 nM | 0.0017 nM | 0.24 nM | 
12 | CCc1ccc(C2Oc3cc(-c4cnc([C@@H]5CCCN5C(=O)[C@@H](NC(=O)OC)C(C)C)[nH]4)cc(F)c3-c3cc4cc(-c5cnc([C@@H]6CCCN6C(=O)C(NC(=O)OC)C6CCOC(C)(C)C6)[nH]5)ccc4n32)s1 (single isomer, unassigned) [Compound 146] | 0.57 nM | 0.0012 nM | 0.38 nM | 
13 | COC(=O)N[C@H](C(=O)N1C[C@H](F)C[C@H]1c1ncc(-c2ccc3c(c2)OC(c2ccc(C)s2)n2c-3cc3cc(-c4cnc([C@@H]5C[C@H]6C[C@H]6N5C(=O)[C@@H](NC(=O)OC)C(C)C)[nH]4)ccc32)[nH]1)C(C)C (single isomer, unassigned) [Compound 706] |  |  |  | IC50 [1, 5]: 2.45 nM; IC50 ([2]; HCV replicon 1A): 0.023 nM; IC50 [3, 6]: 4.61 nM
14 | CCCc1ccc(C2Oc3cc(-c4cnc([C@@H]5CCCN5C(=O)[C@@H](NC(=O)OC)C(C)C)[nH]4)cc(F)c3-c3cc4cc(-c5cnc([C@@H]6CCCN6C(=O)[C@@H](NC(=O)OC)C(C)C)[nH]5)ccc4n32)s1 (single isomer, unassigned) [Compound 33] |  |  |  | IC50 ([1]; Hepatitis C virus, read-out: 1A Y93H IC50 (nM), replicon 1AY93H): 0.28 nM; IC50 ([2]; Hepatitis C virus, replicon 1A): 0.0018 nM; IC50 ([3]; Hepatitis C virus, read-out: 2B IC50 (nM), replicon 2B): 1.89 nM
15 | COC(=O)N[C@H](C(=O)N1CCC[C@H]1c1ncc(-c2cc(C)c3c(c2)OC(c2cc4c(s2)CCC4)n2c-3cc3cc(-c4cnc([C@@H]5CCCN5C(=O)[C@@H](NC(=O)OC)C5C[C@@H](C)O[C@@H](C)C5)[nH]4)ccc32)[nH]1)C(C)C (single isomer, unassigned) [Compound 549] |  |  |  | IC50 [1, 5]: 0.563 nM; IC50 ([2]; HCV replicon 1A): 0.00715 nM; IC50 [3, 6]: 0.169 nM
16 | COC(=O)N[C@H](C(=O)N1CCC[C@H]1c1ncc(-c2ccc3c(c2)OC(c2cc(C)c(C)s2)n2c-3cc3cc(-c4cnc([C@@H]5C[C@H]6C[C@H]6N5C(=O)[C@@H](NC(=O)OC)C(C)C)[nH]4)ccc32)[nH]1)C(C)C (single isomer, unassigned) [Compound 502] |  |  |  | IC50 [1, 5]: 0.575 nM; IC50 ([2]; HCV replicon 1A): 0.0121 nM; IC50 [3, 6]: 0.0575 nM
17 | COC(=O)NC(C(=O)N1CCC[C@H]1c1ncc(-c2ccc3c(c2)cc2n3C(c3cc4nccnc4s3)Oc3cc(-c4cnc([C@@H]5CCCN5C(=O)[C@@H](NC(=O)OC)C(C)C)[nH]4)cc(F)c3-2)[nH]1)C1C[C@@H](C)O[C@@H](C)C1 (single isomer, unassigned) [Compound 371] | 0.553 nM |  | 0.0627 nM | IC50 ([2]; Hepatitis C virus, replicon 1A): 0.0042 nM
18 | CCc1ccc(C2Oc3cc(-c4cnc([C@@H]5CCCN5C(=O)[C@@H](NC(=O)OC)C(C)C)[nH]4)cc(F)c3-c3cc4cc(-c5cnc([C@@H]6C[C@@H](F)CN6C(=O)C(NC(=O)OC)C6CCOC(C)(C)C6)[nH]5)ccc4n32)s1 (single isomer, unassigned) [Compound 254] | 0.12 nM | 0.0011 nM | 3.49 nM | 
19 | COC(=O)N[C@H](C(=O)N1CCC[C@H]1c1nc(-c2cc(F)c3c(c2)OC(c2ccc(C4CC4)s2)n2c-3cc3cc(-c4c[nH]c([C@@H]5C[C@H]6C[C@H]6N5C(=O)[C@@H](NC(=O)OC)[C@@H](C)OC)n4)ccc32)c[nH]1)C(C)C (mixture of isomers) [Compound 723] |  |  |  | IC50 [1, 7]: 0.046 nM; IC50 [2, 8]: 0.0027 nM; IC50 [3, 9]: 0.08 nM
20 | COC(=O)N[C@H](C(=O)N1CCC[C@H]1c1ncc(-c2cc(F)c3c(c2)OC(c2scc4c2OCCO4)n2c-3cc3cc(-c4cnc([C@@H]5C[C@H](F)CN5C(=O)[C@@H](NC(=O)OC)C(C)C)[nH]4)ccc32)[nH]1)C(C)C (single isomer, unassigned) [Compound 526] |  |  |  | IC50 [1, 7]: 4.79 nM; IC50 [2, 8]: 0.00776 nM; IC50 [3, 9]: 33.3 nM
21 | COC(=O)NC(C(=O)N1CCC[C@H]1c1ncc(-c2ccc3c(c2)cc2n3C(c3ccc(C(C)C)s3)Oc3cc(-c4cnc([C@@H]5CCCN5C(=O)[C@@H](NC(=O)OC)C(C)C)[nH]4)cc(F)c3-2)[nH]1)C1CCOC(C)(C)C1 (single isomer, unassigned) [Compound 239] | 6.6 nM | 0.0982 nM | 9.48 nM | 
22 | COC(=O)N[C@H](C(=O)N1CCC[C@H]1c1ncc(-c2cc(F)c3c(c2)OC(c2ccc(C(=O)N(C)C)s2)n2c-3cc3cc(-c4cnc([C@@H]5CCCN5C(=O)[C@@H](NC(=O)OC)C(C)C)[nH]4)ccc32)[nH]1)C(C)C (single isomer, unassigned) [Compound 103] | 5.15 nM |  | 1.71 nM | IC50 ([2]; Hepatitis C virus, replicon 1A): 0.0056 nM
23 | COC(=O)NC(C(=O)N1CCC[C@H]1c1ncc(-c2ccc3c(c2)cc2n3C(c3ccc(C4CC4)s3)Oc3cc(-c4cnc([C@@H]5CCCN5C(=O)[C@@H](NC(=O)OC)C(C)C)[nH]4)cc(F)c3-2)[nH]1)C1CCOC(C)(C)C1 (single isomer, unassigned) [Compound 221] | 0.18 nM | 0.0022 nM | 0.21 nM | 
24 | COC(=O)N[C@H](C(=O)N1CCC[C@H]1c1ncc(-c2cc(C)c3c(c2)OC(c2cc(C)c(C)s2)n2c-3cc3cc(-c4cnc([C@@H]5CCCN5C(=O)[C@@H](NC(=O)OC)C(C)C)[nH]4)ccc32)[nH]1)C(C)C (single isomer, unassigned) [Compound 15] | 18.1 nM |  | 2.28 nM | IC50 ([2]; Hepatitis C virus, replicon 1A): 0.0029 nM
